Literature values in patent publication US9642389B2 (MALAYSIAN PALM OIL BOARD, priority 2009, dated 2017).

Tests used:
Fos = settings: aged rats, literature [34]
[1] = tested on: brains of ovariectomized female rats; settings: literature [33]
mice = settings: literature [16-20]

Q: For `CC(C)=CCC[C@](C)(O[C@@H]1O[C@H](CO)[C@@H](O)[C@H](O)[C@H]1O)[C@H]1CC[C@]2(C)[C@@H]1[C@H](O)C[C@@H]1[C@@]3(C)CC[C@H](O)C(C)(C)[C@@H]3[C@@H](O[C@@H]3O[C@H](CO)[C@@H](O)[C@H](O)[C@H]3O)C[C@]12C` [ginsenoside Rg1], which “age-related decline of Fos in the hippocampi” value (Fos) is on record?
A: attenuated

Q: Which “rate of protein synthesis in brains” value [1] does the source give for `O=c1c(O)c(-c2ccc(O)c(O)c2)oc2cc(O)cc(O)c12` [quercetin] here?
A: up-regulated

Q: For `Oc1ccc(C=Cc2cc(O)cc(O)c2)cc1` [resveratrol], which “performance of mice on rotarods” value (mice) is on record?
A: improve
